What was measured:
[1] = tested on: NIH3T3/EGFR vIII cell-transplanted tumor
NIH3T3/EGFR vIII cells = test: 3D cell culture step (environment without adhesion scaffold), proliferation of NIH3T3/EGFR vIII cells; format: cell-based, mouse; conditions: for cell proliferation inhibiting activity compared with AG1478, Gefitinib and Erlotinib: 3D cell culture step; for IC50: Mus musculus, 72 h, NIH3T3/EGFR vIII cells, Ultra Low Attachment plate, 3 days, […]-GLO
[2] = Acute toxicity test, oral administration; format: in vivo, ICR mice; conditions: for Organ weight Heart / Organ weight Kidney (Left) / Organ weight Kidney (Right) / Organ weight Liver / Organ weight Lung / Organ weight Spleen / Organ weight Thymus: two weeks after
Text: Two-weeks after the compounds represented by the Structural Formula (1) at the above concentrations were orally administered, the mice were dissected and organs thereof were weighed.
Two-weeks after the compounds represented by the Structural Formula (8) at the above concentrations were orally administered, the mice were dissected and organs thereof were weighed.

NIH3T3 cells = test: 2D cell culture step (environment with adhesion scaffold), proliferation of NIH3T3 cells; format: cell-based; conditions: Mus musculus, 72 h; NIH3T3 cells, TC-treated plate, 3 days, […]-GLO; read-out: IC50 2D cell culture step
Experimental: Note that, as a negative control, the NIH3T3 cells at 2×10^3 cells/100 were seeded to the same plate in a volume of 100 μL per well and cultured at 37° C. in the presence of 5% CO2 for 3 days without the addition of the test substance.
Note that, Dulbecco's Modified Eagle Medium supplemented with 5% FBS was used for the culture.
A cell proliferation inhibition rate in the 2D cell culture step was calculated according to (Expression 2) below. Cell proliferation inhibition rate(%)=(1−D/E)×100 (Expression 2)
In the (Expression 2), D denotes the number of viable NIH3T3 cells when the test substance was added, and E denotes the number of viable NIH3T3 cells when the test substance was not added.

[3] = Acute toxicity test, intraperitoneal administration; format: in vivo, ICR mice; conditions: for Organ weight Heart / Organ weight Kidney (Left) / Organ weight Kidney (Right) / Organ weight Liver / Organ weight Lung / Organ weight Spleen / Organ weight Thymus: two weeks after
Text: Two-weeks after the compounds represented by the Structural Formula (1) at the above concentrations were intraperitoneally administered, the mice were dissected and organs thereof were weighed.
Two-weeks after the compounds represented by the Structural Formula (8) at the above concentrations were intraperitoneally administered, the mice were dissected and organs thereof were weighed.

[4] = 30 mg/kg intraperitoneally once a day, day 1 to day 17
[5] = 0.098 mg/kg/0.2 mL, orally once
[6] = 0.098 mg/kg/0.2 mL, intraperitoneally once
[7] = 0.195 mg/kg/0.2 mL, intraperitoneally once
[8] = 0.39 mg/kg/0.2 mL, intraperitoneally once
[9] = 0.78 mg/kg/0.2 mL, intraperitoneally once
[10] = 1.56 mg/kg/0.2 mL, intraperitoneally once
[11] = 3.125 mg/kg/0.2 mL, intraperitoneally once
[12] = 6.25 mg/kg/0.2 mL, intraperitoneally once
[13] = 12.5 mg/kg/0.2 mL, intraperitoneally once
[14] = 25 mg/kg/0.2 mL, intraperitoneally once
[15] = 50 mg/kg/0.4 mL, intraperitoneally once

In the case of `Nc1ccc(I)cc1-c1nc2ccccc2[nH]c1=O` [Structural Formula (8), 3-(2-Amino-5-iodophenyl)-2(1H)-quinoxalinone], the “tumor weight versus negative control group” value ([1]; 30 mg/kg intraperitoneally once a day, 17 days after transplantation, t<0.05) is reported as “significantly different”, the “mouse body weight (weight loss)” value [1, 4] is reported as “weight loss was not observed” and the toxicity [1, 4] is reported as “no toxicity”. For the same molecule, the “tumor proliferation inhibiting activity” value [1, 4] was “exhibited the tumor proliferation inhibiting activity”, the “tumor proliferation inhibiting activity compared with Gefitinib” value ([1]; 30 mg/kg intraperitoneally vs Gefitinib 100 mg/kg orally) was “comparable” and the “cell proliferation inhibiting activity compared with AG1478, Gefitinib and Erlotinib” value (NIH3T3/EGFR vIII cells) was “more significant cell proliferation inhibiting activity”. For the same molecule, the IC50 (NIH3T3/EGFR vIII cells) was 0.01 µM, the “Organ weight Heart” value [2, 5] was 124.0 mg and the “Organ weight Kidney (Left)” value [2, 5] was 165.0 mg. The “Organ weight Kidney (Right)” value [2, 5] was 181.0 mg, the “Organ weight Liver” value [2, 5] was 1322.0 mg and the “Organ weight Lung” value [2, 5] was 182.0 mg. For the same molecule, the “Organ weight Spleen” value [2, 5] was 125.0 mg, the “Organ weight Heart” value ([2]; 6.25 mg/kg/0.2 mL, orally once) was 119.0 mg and the “Organ weight Lung” value ([2]; 6.25 mg/kg/0.2 mL, orally once) was 171.0 mg. For the same molecule, the “Organ weight Thymus” value ([2]; 6.25 mg/kg/0.2 mL, orally once) was 74.0 mg, the “Organ weight Heart” value ([2]; 12.5 mg/kg/0.2 mL, orally once) was 111.0 mg and the “Organ weight Kidney (Left)” value ([2]; 12.5 mg/kg/0.2 mL, orally once) was 150.0 mg. The “Organ weight Kidney (Right)” value ([2]; 12.5 mg/kg/0.2 mL, orally once) was 167.0 mg, the “Organ weight Liver” value ([2]; 12.5 mg/kg/0.2 mL, orally once) was 1375.0 mg and the “Organ weight Lung” value ([2]; 12.5 mg/kg/0.2 mL, orally once) was 159.0 mg. For the same molecule, the “Organ weight Spleen” value ([2]; 12.5 mg/kg/0.2 mL, orally once) was 168.0 mg, the “Organ weight Thymus” value ([2]; 12.5 mg/kg/0.2 mL, orally once) was 90.0 mg and the “Organ weight Heart” value ([2]; 25 mg/kg/0.2 mL, orally once) was 110.0 mg. For the same molecule, the “Organ weight Kidney (Left)” value ([2]; 25 mg/kg/0.2 mL, orally once) was 140.0 mg, the “Organ weight Kidney (Right)” value ([2]; 25 mg/kg/0.2 mL, orally once) was 152.0 mg and the “Organ weight Liver” value ([2]; 25 mg/kg/0.2 mL, orally once) was 1184.0 mg. For the same molecule, the “Organ weight Lung” value ([2]; 25 mg/kg/0.2 mL, orally once) was 163.0 mg, the “Organ weight Spleen” value ([2]; 25 mg/kg/0.2 mL, orally once) was 92.0 mg and the “Organ weight Thymus” value ([2]; 25 mg/kg/0.2 mL, orally once) was 39.0 mg. For the same molecule, the “Organ weight Heart” value ([2]; 50 mg/kg/0.4 mL, orally once) was 116.0 mg, the “Organ weight Kidney (Left)” value ([2]; 50 mg/kg/0.4 mL, orally once) was 158.0 mg and the “Organ weight Kidney (Right)” value ([2]; 50 mg/kg/0.4 mL, orally once) was 175.0 mg. For the same molecule, the “Organ weight Liver” value ([2]; 50 mg/kg/0.4 mL, orally once) was 1331.0 mg, the “Organ weight Lung” value ([2]; 50 mg/kg/0.4 mL, orally once) was 176.0 mg and the “Organ weight Spleen” value ([2]; 50 mg/kg/0.4 mL, orally once) was 133.0 mg. The “Organ weight Thymus” value ([2]; 50 mg/kg/0.4 mL, orally once) was 87.0 mg, the autopsy findings ([2]; mouse, in vivo, po) was “slightly lighter livers and slightly heavier spleens were found at some doses” and the abnormalities ([2]; orally once, any doses (0.098 to 50 mg/kg)) was “no abnormalities were found at any doses”. The IC50 (NIH3T3 cells) was > 10 µM, the “Organ weight Heart” value [3, 6] was 118.0 mg and the “Organ weight Kidney (Left)” value [3, 6] was 160.0 mg. The “Organ weight Kidney (Right)” value [3, 6] was 172.0 mg, the “Organ weight Liver” value [3, 6] was 1476.0 mg and the “Organ weight Lung” value [3, 6] was 165.0 mg. The “Organ weight Spleen” value [3, 6] was 176.0 mg, the “Organ weight Thymus” value [3, 6] was 59.0 mg and the “Organ weight Heart” value [3, 7] was 106.0 mg. The “Organ weight Kidney (Left)” value [3, 7] was 174.0 mg, the “Organ weight Kidney (Right)” value [3, 7] was 181.0 mg and the “Organ weight Liver” value [3, 7] was 1442.0 mg. The “Organ weight Lung” value [3, 7] was 166.0 mg, the “Organ weight Spleen” value [3, 7] was 98.0 mg and the “Organ weight Thymus” value [3, 7] was 66.0 mg. For the same molecule, the “Organ weight Heart” value [3, 8] was 108.0 mg, the “Organ weight Kidney (Left)” value [3, 8] was 146.0 mg and the “Organ weight Kidney (Right)” value [3, 8] was 158.0 mg. For the same molecule, the “Organ weight Liver” value [3, 8] was 1234.0 mg, the “Organ weight Lung” value [3, 8] was 151.0 mg and the “Organ weight Spleen” value [3, 8] was 69.0 mg. For the same molecule, the “Organ weight Thymus” value [3, 8] was 47.0 mg, the “Organ weight Heart” value [3, 9] was 110.0 mg and the “Organ weight Kidney (Left)” value [3, 9] was 177.0 mg. The “Organ weight Kidney (Right)” value [3, 9] was 181.0 mg, the “Organ weight Liver” value [3, 9] was 1324.0 mg and the “Organ weight Lung” value [3, 9] was 163.0 mg. The “Organ weight Spleen” value [3, 9] was 127.0 mg, the “Organ weight Thymus” value [3, 9] was 60.0 mg and the “Organ weight Heart” value [3, 10] was 125.0 mg. The “Organ weight Kidney (Left)” value [3, 10] was 161.0 mg, the “Organ weight Kidney (Right)” value [3, 10] was 179.0 mg and the “Organ weight Liver” value [3, 10] was 1738.0 mg. The “Organ weight Lung” value [3, 10] was 183.0 mg, the “Organ weight Spleen” value [3, 10] was 158.0 mg and the “Organ weight Thymus” value [3, 10] was 94.0 mg. The “Organ weight Heart” value [3, 11] was 120.0 mg, the “Organ weight Kidney (Left)” value [3, 11] was 172.0 mg and the “Organ weight Kidney (Right)” value [3, 11] was 175.0 mg. For the same molecule, the “Organ weight Liver” value [3, 11] was 1710.0 mg, the “Organ weight Lung” value [3, 11] was 165.0 mg and the “Organ weight Spleen” value [3, 11] was 132.0 mg. For the same molecule, the “Organ weight Thymus” value [3, 11] was 60.0 mg, the “Organ weight Heart” value [3, 12] was 120.0 mg and the “Organ weight Kidney (Left)” value [3, 12] was 158.0 mg. For the same molecule, the “Organ weight Kidney (Right)” value [3, 12] was 178.0 mg, the “Organ weight Liver” value [3, 12] was 1641.0 mg and the “Organ weight Lung” value [3, 12] was 168.0 mg. The “Organ weight Spleen” value [3, 12] was 124.0 mg, the “Organ weight Thymus” value [3, 12] was 53.0 mg and the “Organ weight Heart” value [3, 13] was 108.0 mg. For the same molecule, the “Organ weight Kidney (Left)” value [3, 13] was 150.0 mg, the “Organ weight Kidney (Right)” value [3, 13] was 149.0 mg and the “Organ weight Liver” value [3, 13] was 1356.0 mg. For the same molecule, the “Organ weight Lung” value [3, 13] was 165.0 mg, the “Organ weight Spleen” value [3, 13] was 111.0 mg and the “Organ weight Thymus” value [3, 13] was 78.0 mg. The “Organ weight Heart” value [3, 14] was 108.0 mg, the “Organ weight Kidney (Left)” value [3, 14] was 149.0 mg and the “Organ weight Kidney (Right)” value [3, 14] was 155.0 mg. The “Organ weight Liver” value [3, 14] was 1564.0 mg, the “Organ weight Lung” value [3, 14] was 155.0 mg and the “Organ weight Spleen” value [3, 14] was 138.0 mg. For the same molecule, the “Organ weight Thymus” value [3, 14] was 103.0 mg, the “Organ weight Heart” value [3, 15] was 120.0 mg and the “Organ weight Kidney (Left)” value [3, 15] was 150.0 mg. For the same molecule, the “Organ weight Kidney (Right)” value [3, 15] was 152.0 mg, the “Organ weight Liver” value [3, 15] was 1551.0 mg and the “Organ weight Lung” value [3, 15] was 166.0 mg. The “Organ weight Spleen” value [3, 15] was 98.0 mg, the “Organ weight Thymus” value [3, 15] was 66.0 mg and the abnormalities ([3]; intraperitoneally once, any doses (0.098 to 50 mg/kg)) was “no abnormalities were found at any doses”. The autopsy findings ([3]; mouse, in vivo, ip) was “slightly lighter livers, and slightly lighter or heavier spleens were found at some doses”.

With `Cc1ccc(N)c(-c2nc3ccccc3[nH]c2=O)c1` [Structural Formula (4), 3-(2-amino-5-methylphenyl)hydroquinoxalin-2-one] the IC50 (NIH3T3/EGFR vIII cells) was 0.5 µM and the IC50 (NIH3T3 cells) was > 10 µM.

In the case of `O=C(Nc1ccc(Br)cc1-c1nc2ccccc2[nH]c1=O)c1ccccc1` [Structural Formula (15)], the IC50 (NIH3T3/EGFR vIII cells) is reported as > 10 µM and the IC50 (NIH3T3 cells) is reported as > 10 µM.

For `CC(=O)Nc1ccc(Br)cc1-c1nc2ccccc2[nH]c1=O` [Structural Formula (3), N-[4-bromo-2-(3-oxo(4-hydroquinoxalin-2-yl))phenyl]acetamide], the IC50 (NIH3T3/EGFR vIII cells) was 0.5 µM and the IC50 (NIH3T3 cells) was > 10 µM.

In the case of `O=C(O)CCCC(=O)Nc1ccc(Br)cc1-c1nc2ccccc2[nH]c1=O` [Structural Formula (5), 4-{N-[4-bromo-2-(3-oxo(4-hydroquinoxalin-2-yl))phenyl]carbamoyl}butanoic acid], the IC50 (NIH3T3/EGFR vIII cells) is reported as 0.4 µM and the IC50 (NIH3T3 cells) is reported as > 10 µM.

In the case of `Nc1ccc(Cl)cc1-c1nc2ccccc2[nH]c1=O` [Structural Formula (6), 3-(2-amino-5-chlorophenyl)hydroquinoxalin-2-one], the “cell proliferation inhibiting activity compared with AG1478, Gefitinib and Erlotinib” value (NIH3T3/EGFR vIII cells) is reported as “more significant cell proliferation inhibiting activity”, the IC50 (NIH3T3/EGFR vIII cells) is reported as 0.014 µM and the IC50 (NIH3T3 cells) is reported as > 10 µM.

In the case of `Nc1ccc(F)cc1-c1nc2ccccc2[nH]c1=O` [Structural Formula (7), 3-(2-Amino-5-fluorophenyl)-2(1H)-quinoxalinone], the IC50 (NIH3T3/EGFR vIII cells) is reported as 0.34 µM and the IC50 (NIH3T3 cells) is reported as > 10 µM.

Reference: US9969699B2, “Cancer cell growth inhibitor, anticancer agent, and method for screening same, as well as novel compound” (Microbial Chemistry Research Foundation, priority 2014, dated 2018)
